Assays:
Assay in all cases: relative viability (nuclei count vs DMSO), 5 days (fraction); higher = more cells survive
CAL-12T = tested on: CAL-12T
In short: (§1)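 Dosing by pin tool came one day after lung cancer cell lines were seeded in 1536-well plates, using either one drug or a fixed anchor-drug dose plus five library-drug doses (not always all listed) in √10 steps. After 5 days, nuclei were counted on 4× images. Relative viability is treated-well nuclei count divided by vehicle-well nuclei count, and values are medians of duplicate plates.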

PC-3 [JPC-3] = tested on: PC-3 [JPC-3]
In short: as §1

NCI-H460 = tested on: NCI-H460
In short: as §1

EMC-BAC-2 = tested on: EMC-BAC-2
In short: as §1

LU99A = tested on: LU99A
In short: as §1

ABC-1 = tested on: ABC-1
In short: as §1

NCI-H1651 = tested on: NCI-H1651
In short: as §1

BEN = tested on: BEN
In short: as §1

HCC-15 = tested on: HCC-15
In short: as §1

NCI-H2023 = tested on: NCI-H2023
In short: as §1

NCI-H358 = tested on: NCI-H358
In short: as §1

NCI-H520 = tested on: NCI-H520
In short: as §1

NCI-H1563 = tested on: NCI-H1563
In short: as §1

201T = tested on: 201T
In short: as §1

COR-L 105 = tested on: COR-L 105
In short: as §1

NCI-H522 = tested on: NCI-H522
In short: as §1

NCI-H727 = tested on: NCI-H727
In short: as §1

NCI-H838 = tested on: NCI-H838
In short: as §1

HCC-44 = tested on: HCC-44
In short: as §1

EKVX = tested on: EKVX
In short: as §1

NCI-H322M = tested on: NCI-H322M
In short: as §1

SW 900 = tested on: SW 900
In short: as §1

LK-2 = tested on: LK-2
In short: as §1

SMILES: CN1CCN(CCOc2cc(OC3CCOCC3)c3c(Nc4c(Cl)ccc5c4OCO5)ncnc3c2)CC1 [Saracatinib] + N=C(N)NC(=N)NCCc1ccccc1 [Phenformin] (partner 250 µM)
- relative viability (CAL-12T; first compound 0.02 µM): 0.608
- relative viability (CAL-12T; first compound 0.2 µM): 0.639
- relative viability (CAL-12T; first compound 0.6325 µM): 0.595
- relative viability (CAL-12T; first compound 2 µM): 0.506
- relative viability (PC-3 [JPC-3]; first compound 0.02 µM): 0.49
- relative viability (PC-3 [JPC-3]; first compound 0.2 µM): 0.421
- relative viability (PC-3 [JPC-3]; first compound 0.6325 µM): 0.421
- relative viability (PC-3 [JPC-3]; first compound 2 µM): 0.339
- relative viability (NCI-H460; first compound 0.02 µM): 0.534
- relative viability (NCI-H460; first compound 0.2 µM): 0.382
- relative viability (NCI-H460; first compound 0.6325 µM): 0.491
- relative viability (NCI-H460; first compound 2 µM): 0.435
- relative viability (EMC-BAC-2; first compound 0.02 µM): 0.521
- relative viability (EMC-BAC-2; first compound 0.2 µM): 0.432
- relative viability (EMC-BAC-2; first compound 0.6325 µM): 0.418
- relative viability (EMC-BAC-2; first compound 2 µM): 0.35
- relative viability (LU99A; first compound 0.02 µM): 0.938
- relative viability (LU99A; first compound 0.2 µM): 0.617
- relative viability (LU99A; first compound 0.6325 µM): 0.879
- relative viability (LU99A; first compound 2 µM): 0.707
- relative viability (ABC-1; first compound 0.02 µM): 0.251
- relative viability (ABC-1; first compound 0.2 µM): 0.238
- relative viability (ABC-1; first compound 0.6325 µM): 0.231
- relative viability (ABC-1; first compound 2 µM): 0.215
- relative viability (NCI-H1651; first compound 0.02 µM): 0.414
- relative viability (NCI-H1651; first compound 0.2 µM): 0.258
- relative viability (NCI-H1651; first compound 0.6325 µM): 0.388
- relative viability (NCI-H1651; first compound 2 µM): 0.3
- relative viability (BEN; first compound 0.02 µM): 0.292
- relative viability (BEN; first compound 0.6325 µM): 0.253
- relative viability (BEN; first compound 2 µM): 0.209
- relative viability (HCC-15; first compound 0.02 µM): 0.487
- relative viability (HCC-15; first compound 0.2 µM): 0.402
- relative viability (HCC-15; first compound 0.6325 µM): 0.417
- relative viability (HCC-15; first compound 2 µM): 0.329
- relative viability (NCI-H2023; first compound 0.02 µM): 0.448
- relative viability (NCI-H2023; first compound 0.2 µM): 0.303
- relative viability (NCI-H2023; first compound 0.6325 µM): 0.236
- relative viability (NCI-H2023; first compound 2 µM): 0.257
- relative viability (NCI-H358; first compound 0.02 µM): 0.37
- relative viability (NCI-H358; first compound 0.2 µM): 0.298
- relative viability (NCI-H358; first compound 0.6325 µM): 0.23
- relative viability (NCI-H358; first compound 2 µM): 0.171
- relative viability (NCI-H520; first compound 0.02 µM): 0.687
- relative viability (NCI-H520; first compound 0.6325 µM): 0.441
- relative viability (NCI-H520; first compound 2 µM): 0.291
- relative viability (NCI-H1563; first compound 0.02 µM): 0.615
- relative viability (NCI-H1563; first compound 0.2 µM): 0.63
- relative viability (NCI-H1563; first compound 0.6325 µM): 0.603
- relative viability (NCI-H1563; first compound 2 µM): 0.572
- relative viability (201T; first compound 0.02 µM): 0.391
- relative viability (201T; first compound 0.2 µM): 0.415
- relative viability (201T; first compound 0.6325 µM): 0.422
- relative viability (201T; first compound 2 µM): 0.369
- relative viability (COR-L 105; first compound 0.02 µM): 0.586
- relative viability (COR-L 105; first compound 0.2 µM): 0.532
- relative viability (COR-L 105; first compound 0.6325 µM): 0.438
- relative viability (COR-L 105; first compound 2 µM): 0.256
- relative viability (NCI-H522; first compound 0.02 µM): 0.553
- relative viability (NCI-H522; first compound 0.6325 µM): 0.639
- relative viability (NCI-H522; first compound 2 µM): 0.612
- relative viability (NCI-H727; first compound 0.02 µM): 0.535
- relative viability (NCI-H727; first compound 0.2 µM): 0.238
- relative viability (NCI-H727; first compound 0.6325 µM): 0.465
- relative viability (NCI-H727; first compound 2 µM): 0.316
- relative viability (NCI-H838; first compound 0.02 µM): 0.645
- relative viability (NCI-H838; first compound 0.2 µM): 0.486
- relative viability (NCI-H838; first compound 0.6325 µM): 0.49
- relative viability (NCI-H838; first compound 2 µM): 0.379
- relative viability (HCC-44; first compound 0.02 µM): 0.316
- relative viability (HCC-44; first compound 0.2 µM): 0.227
- relative viability (HCC-44; first compound 0.6325 µM): 0.333
- relative viability (HCC-44; first compound 2 µM): 0.199
- relative viability (EKVX; first compound 0.02 µM): 0.26
- relative viability (EKVX; first compound 0.6325 µM): 0.211
- relative viability (EKVX; first compound 2 µM): 0.189
- relative viability (NCI-H322M; first compound 0.02 µM): 0.708
- relative viability (NCI-H322M; first compound 0.2 µM): 0.694
- relative viability (NCI-H322M; first compound 0.6325 µM): 0.55
- relative viability (NCI-H322M; first compound 2 µM): 0.334
- relative viability (SW 900; first compound 0.02 µM): 0.756
- relative viability (SW 900; first compound 0.2 µM): 0.36
- relative viability (SW 900; first compound 0.6325 µM): 0.493
- relative viability (SW 900; first compound 2 µM): 0.47
- relative viability (LK-2; first compound 0.02 µM): 0.545
- relative viability (LK-2; first compound 0.2 µM): 0.368
- relative viability (LK-2; first compound 0.6325 µM): 0.313
- relative viability (LK-2; first compound 2 µM): 0.314
